The nature of series [1]: In vitro metabolism rate determination, human liver microsome (HLM) assay. To be noted: for microsomal CLint at 1 μM: human, liver microsomes, read-out: HLM: Clint, app; for HLM: Clint, app: human liver microsomes, unit assumed. The class given is in vitro ADME. In short, it runs like this: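 Human liver microsomes at 0.5 nmol cytochrome P450/ml with 1 μM substrate, pre-warmed 5 min at 37° C, reaction started with NADP; samples taken 0–60 min and terminated. Substrate loss measured; first-order rate constant from log-linear regression converted to half-life or Clint (μl/min/mg protein).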
A general note: Microsomes from liver hold many membrane-bound enzymes, among them those of drug oxidation.

For a further series, the target named is T1, human MC3 receptors (Homo sapiens, UniProt P41968).
T1 construct: stably transfected with full length cDNA encoding human MC1 or MC3 receptors; expressed in transfected cells
T1 sequence (P41968 whole entry): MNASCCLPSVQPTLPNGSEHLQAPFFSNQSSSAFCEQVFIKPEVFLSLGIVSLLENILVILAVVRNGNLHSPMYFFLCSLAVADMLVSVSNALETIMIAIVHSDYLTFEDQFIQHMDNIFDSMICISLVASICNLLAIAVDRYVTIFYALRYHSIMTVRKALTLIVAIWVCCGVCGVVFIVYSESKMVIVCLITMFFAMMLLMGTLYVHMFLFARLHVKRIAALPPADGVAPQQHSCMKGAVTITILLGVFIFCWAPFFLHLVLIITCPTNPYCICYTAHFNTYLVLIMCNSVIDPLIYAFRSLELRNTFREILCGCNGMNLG
The experiment in a line: In vitro agonist potency (EC50) at melanocortin receptor type 3, cAMP in recombinant cell line. The class given is cell-based. Here is the method:
Measurement of In Vitro Agonist Potency (EC50) of Compounds Against Melanocortin Receptors Type 1 and 3 (MC1 and MC3).
Activation of melanocortin (MC) receptors by agonists results in activation of intracellular adenylate cyclase enzymes that synthesise the second messenger signalling molecule, adenosine 3′,5′-cyclic monophosphate (cAMP). Changes in cAMP levels following treatment of recombinant MC1 and MC3 cell lines with test compound were measured and an MC1 and MC3 potency estimate (EC50) calculated as follows: […]
Human embryonic kidney (HEK) or Chinese hamster ovary cell lines stably transfected with full length cDNA encoding human MC1 or MC3 receptors, respectively, were established using standard molecular biology methods. Test compounds were dissolved in dimethyl sulfoxide (DMSO) at 4 mM. 11 point half log unit increment dilution series of test compound, typically starting at 50 uM were prepared in a buffer comprised of phosphate buffered saline (PBS), 2.5% DMSO and 0.05% pluronic F-127 surfactant. Freshly cultured cells at 80-90% confluence were harvested and re-suspended in Dulbecco's Modified Eagle's Medium (DMEM). Cells (10,000 for MC3, 20,000 for MC1) were added to the test compound dilution series in a 384 well assay plate and incubated for 1 hour at 37° C. The relative cAMP concentration in each well was then measured using a β-galactosidase enzyme fragment complementation method purchased in kit form as the Discoverx cAMP II kit from GE Healthcare/Amersham Biosciences UK. In the case of MC1,3-Isobutyl-1-methylxanthine (IBMX) at a concentration of 750 μM was included in DMEM as the cells were re-suspended for assay. […] Sigmoidal curves were fitted to plots of log10 inhibitor concentration vs percent effect using a custom made software application called SIGHTS and EC50 estimates determined by the software as the concentration of test compound giving an effect half way between the bottom and top asymptotes of the sigmoidal dose response curve. Each experiment included an EC50 determination for alpha melanocyte stimulating hormone, which was used as a standard to track assay consistency and allow fair comparison between EC50 estimates obtained in different experiments.

The next series deals with MC4 receptor (Homo sapiens, UniProt P32245). The experiment in a line: MC4 EC50 functional potency (protocol E of US2005/0176772 / WO 2005/077935). The format is cell-based. Here is the method: The compounds of formula (I) of the present invention have utility as MCR4 agonists in the treatment of various disease states.
Chain of MC4 receptor (P32245 whole entry): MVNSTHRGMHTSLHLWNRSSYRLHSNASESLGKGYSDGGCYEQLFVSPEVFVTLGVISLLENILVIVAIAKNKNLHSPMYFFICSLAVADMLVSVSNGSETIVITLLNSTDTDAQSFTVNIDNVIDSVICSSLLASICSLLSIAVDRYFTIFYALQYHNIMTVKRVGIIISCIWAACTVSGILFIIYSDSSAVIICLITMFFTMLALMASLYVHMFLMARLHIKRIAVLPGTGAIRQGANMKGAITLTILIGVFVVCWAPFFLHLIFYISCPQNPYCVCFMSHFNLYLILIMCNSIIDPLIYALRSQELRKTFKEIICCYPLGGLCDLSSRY
MC5 and MC4 EC50 activity was determined as described by assay protocols D and E, respectively, in US2005/0176772 (pages 28-30).

A further series has as its target T2, CYP3A4 (Homo sapiens, UniProt P08684).
T2 construct: utilizes human liver microsomes together with isoform-specific clinical drug probes; from tissue; host or cells: human liver microsomes
The experiment in a line: High density DDI 3 μM cocktail screen in human liver microsomes, midazolam probe. As to conditions: human, liver microsomes, probe midazolam, read-out: % inhibition 3A4 @ 3 μM. The class given is in vitro ADME. In short, it runs like this:
(§1)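 Pooled human liver microsomes incubated with isoform-specific clinical probe substrates as a cocktail (midazolam for CYP3A4), with or without test compound at 3 μM. Metabolite formation followed over time by LC-MS/MS. Inhibition expressed as a single-point percentage.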

Another series addresses T3, MC4 receptor (MC4R) (Homo sapiens, UniProt P32245).
T3 construct: expressed in transfected cells; host or cells: CHO-CRE MC4R cells (membranes)
The experiment in a line: Nle4, D-Phe7-α-MSH inhibition at the MC4 receptor (competition binding, SPA, CHO-CRE MC4R membranes). The method, boiled down: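 Competition binding by SPA used CHO-CRE MC4R membranes on WGA beads (0.15 ug membrane/well) with 0.06 nM [125I] Nle4, D-Phe7-α-MSH and 11 half-log competitor concentrations in duplicate. Buffer was 25 mM HEPES pH 7 with MgCl2, CaCl2, Pluronic F68 and protease inhibitors; incubation was 12 hours at room temperature. Non-specific binding was set with 100 nM SHU9119, and Ki was calculated.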

In the next series the target is T4, cytochrome P450 3A4 (Homo sapiens, UniProt P08684).
T4 construct: utilizes human liver microsomes together with isoform-specific clinical drug probes; from tissue; host or cells: human liver microsomes
T4 sequence (P08684 whole entry, canonical isoform): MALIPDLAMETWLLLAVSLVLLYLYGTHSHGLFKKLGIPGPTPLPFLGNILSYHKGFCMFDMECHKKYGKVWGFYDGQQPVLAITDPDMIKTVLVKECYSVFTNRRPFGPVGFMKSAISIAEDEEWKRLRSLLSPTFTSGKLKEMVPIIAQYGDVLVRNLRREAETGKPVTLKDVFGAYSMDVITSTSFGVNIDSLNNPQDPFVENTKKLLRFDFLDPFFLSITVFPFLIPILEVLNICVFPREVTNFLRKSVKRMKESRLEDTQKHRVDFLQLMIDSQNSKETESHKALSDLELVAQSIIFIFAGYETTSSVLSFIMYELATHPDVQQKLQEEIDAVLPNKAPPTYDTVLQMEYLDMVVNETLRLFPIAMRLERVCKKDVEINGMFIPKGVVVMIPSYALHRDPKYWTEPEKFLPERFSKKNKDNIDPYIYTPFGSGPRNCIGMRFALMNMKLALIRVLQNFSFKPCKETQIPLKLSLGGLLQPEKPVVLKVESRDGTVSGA
The experiment in a line: High density DDI 3 μM cocktail screen in human liver microsomes, midazolam probe. The format is in vitro ADME. To be noted: 3 µM. The method, boiled down:
as §1

For another series, the target named is T5, MC3 receptor (MC3R) (Homo sapiens, UniProt P41968).
T5 construct: expressed in transfected cells; host or cells: CHO-CRE MC3R cells (membranes)
T5 sequence (P41968 whole entry): as the sequence (P41968 whole entry) above
The experiment in a line: Nle4, D-Phe7-α-MSH inhibition at the MC3 receptor (competition binding, SPA, CHO-CRE MC3R membranes). The method, boiled down: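 Competition binding by SPA used CHO-CRE MC3R membranes on WGA beads with 0.06 nM [125I]Nle4,D-Phe7-α-MSH and 11 half-log competitor concentrations. Buffer was 25 mM HEPES, MgCl2, CaCl2, 1% Pluronic F68, pH7, incubated 12 h at room temperature. Non-specific binding was defined with 100 nM SHU9119, and Ki values were derived.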

Structures are written as SMILES.

The source of these data is US8592403B2, “Diazepine and diazocane compounds as MC4 agonists” (Pfizer Limited, priority 2008, dated 2013).

As a reminder, the EC50 is the concentration giving half of the maximal effect. For orientation: inhibition means the percentage by which the read-out fell short of the control. As a reminder, the Ki is a measure of affinity in units of concentration, obtained from inhibition or displacement. A low value points to a stronger hold on the target.

T3 sequence (P32245 whole entry): as the sequence (P32245 whole entry) above
T2 sequence (P08684 whole entry, canonical isoform): as the sequence (P08684 whole entry, canonical isoform) above

`CS(=O)(=O)N1CCN(C(=O)[C@@H]2CN(c3cccnn3)C[C@H]2c2ccc(F)cc2F)CCCC1c1ccc(Cl)cc1` (mixture of isomers) [Example 41]: the microsomal CLint at 1 μM in series [1] is 41 µL/min/mg. Besides, the EC50 amounted to 6670 nM on human MC3 receptors and 25.1 nM at MC4 receptor. The inhibition at 3 µM at CYP3A4 turned out to be 88%.

With `COC(=O)N1CCN(C(=O)[C@@H]2CN(c3cccnn3)C[C@H]2c2ccc(F)cc2F)CCCC1c1ccccc1` (mixture of isomers) [Example 100], in series [1], the microsomal CLint at 1 μM came out at 83 µL/min/mg. At MC4 receptor (MC4R), this compound yielded a Ki of 189 nM. Also, the EC50 at human MC3 receptors worked out at 436 nM; at MC4 receptor, 7.16 nM. Moreover, at CYP3A4, the inhibition at 3 µM is 65.5%.

For `CS(=O)(=O)N1CCN(C(=O)[C@@H]2CN(c3ccc(C#N)cn3)C[C@H]2c2ccc(F)cc2F)CCCC1c1ccccc1` (single isomer, unassigned) [Example 39], the microsomal CLint at 1 μM in series [1] worked out at 177 µL/min/mg. Besides, the results for the EC50 at human MC3 receptors and at MC4 receptor were 942 nM and 38 nM, respectively. In addition, the inhibition at 3 µM at CYP3A4 turned out to be 87.5%.

In series [1], `CS(=O)(=O)N1CCN(C(=O)[C@@H]2CN(c3ccc(C#N)cn3)C[C@H]2c2ccc(F)cc2F)CCCC1c1ccccc1` (single isomer, unassigned) [Example 40] gave an HLM: Clint, app of 156 µL/min/mg. Moreover, the EC50 amounted to 607 nM at human MC3 receptors and 29 nM on MC4 receptor. Moreover, the “% inhibition 3A4 @ 3 μM” value at cytochrome P450 3A4 turned out to be 79.5%.

In series [1], `COc1ccc([C@@H]2CN(c3ccc(=O)[nH]n3)C[C@H]2C(=O)N2CCCC(c3ccc(Cl)cc3)N(S(C)(=O)=O)CC2)c(F)c1` (single isomer, unassigned) [Example 114] gave an HLM: Clint, app of 16.4 µL/min/mg. Moreover, the Ki at MC4 receptor (MC4R) was found to be 20.8 nM; at MC3 receptor (MC3R) it was 1150 nM. Also, the EC50 at MC4 receptor turned out to be 73.4 nM. In addition, the “% inhibition 3A4 @ 3 μM” value at cytochrome P450 3A4 turned out to be 27.5%.

Take `COc1ccc([C@@H]2CN(c3ccc(=O)n(C)n3)C[C@H]2C(=O)N2CCC[C@@H](c3ccc(Cl)cc3)N(C(=O)C3CC3)CC2)c(F)c1` [Example 29]: in series [1], the microsomal CLint at 1 μM amounted to 21.4 µL/min/mg. Moreover, the results for the EC50 at human MC3 receptors and at MC4 receptor were 506 nM and 2.23 nM, respectively. Further, on CYP3A4, the inhibition at 3 µM amounted to 60.8%.

With `COc1ccc([C@@H]2CN(c3ccc(=O)n(C)n3)C[C@H]2C(=O)N2CCC[C@@H](c3ccc(Cl)cc3)N(C(=O)C(C)C)CC2)c(F)c1` [Example 31], the microsomal CLint at 1 μM in series [1] worked out at 21.8 µL/min/mg. Moreover, at MC4 receptor (MC4R), the Ki amounted to 28.2 nM. Besides, the results for the EC50 on human MC3 receptors and on MC4 receptor were 412 nM and 1.23 nM, respectively. The inhibition at 3 µM at CYP3A4 is 40.8%.

Take `COC(=O)N1CCN(C(=O)[C@@H]2CN(c3ccc(C#N)nn3)C[C@H]2c2ccc(OC)cc2F)CCC[C@@H]1c1ccc(Cl)cc1` [Example 88]: the Ki stood at 24 nM on MC4 receptor (MC4R) and 153 nM at MC3 receptor (MC3R). Moreover, the EC50 was found to be 148 nM on human MC3 receptors and 5.38 nM on MC4 receptor.

Consider `COC(=O)N1CCN(C(=O)[C@@H]2CN(c3ccc(C#N)nn3)CC2c2ccc(OC)cc2F)CCC[C@H]1c1ccc(Cl)cc1` (stereo partly drawn) [Example 89], for which the Ki at MC4 receptor (MC4R) amounted to 31.3 nM; at MC3 receptor (MC3R) it was 402 nM. Further, the values for the EC50 at human MC3 receptors and at MC4 receptor were 764 nM and 14.3 nM, respectively.
